Molecular target: P. falciparum apicoplast DNA polymerase (Pf-apPOL) (Plasmodium falciparum, UniProt Q8ILY1)
Experiment: Fluorescence-based high-throughput DNA polymerase assay (molecular beacon), primary screen and dose-response;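 as to % inhibition ApPOL 90': test concentration in µM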;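 as to % inhibition apPOL 180': test concentration in µM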
Format: biochemical
Procedure, shortened: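 Single-point screening used 10 µM compound with 20 nM polymerase, 20 nM hairpin substrate and 6 µM dNTPs for 90 min at 25 °C. Confirmatory titrations (2.5–80 µM) followed fluorescence at three times, and IC50 was derived from a fit including a cooperativity term n.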

[1] = supplemental file 2, sheet IC50 nontoxic compounds; Pf-apPOL

P. falciparum apicoplast DNA polymerase (Pf-apPOL), sequence (Q8ILY1 entry or part of it): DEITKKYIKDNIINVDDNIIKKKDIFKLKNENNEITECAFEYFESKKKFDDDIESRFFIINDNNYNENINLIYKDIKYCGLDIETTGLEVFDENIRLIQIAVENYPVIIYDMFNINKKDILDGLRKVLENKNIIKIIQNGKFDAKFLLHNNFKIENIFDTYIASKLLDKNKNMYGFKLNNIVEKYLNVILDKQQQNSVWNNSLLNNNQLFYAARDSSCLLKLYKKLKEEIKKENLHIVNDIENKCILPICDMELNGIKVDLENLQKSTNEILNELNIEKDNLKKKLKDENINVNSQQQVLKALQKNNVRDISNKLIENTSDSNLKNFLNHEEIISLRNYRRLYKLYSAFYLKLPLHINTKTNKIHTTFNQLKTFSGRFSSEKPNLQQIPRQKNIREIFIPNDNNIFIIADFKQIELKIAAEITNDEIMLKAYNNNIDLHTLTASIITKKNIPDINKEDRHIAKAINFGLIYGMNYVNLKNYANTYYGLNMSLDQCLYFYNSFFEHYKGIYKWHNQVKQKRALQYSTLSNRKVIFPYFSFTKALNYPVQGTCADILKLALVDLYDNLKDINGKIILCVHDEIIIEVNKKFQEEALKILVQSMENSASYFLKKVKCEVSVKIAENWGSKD

O=c1cc(-c2ccccc2)oc2c(O)c(O)ccc12 [Molecule 84, Oc1ccc2c(c1O)oc(cc2=O)c1ccccc1]
DNA Pol (186 hits, value of the hit list (primary screen); unit not given; 90 min, 10 µM): 55
% inhibition Apo pol 10' (DRC-1; 10'; concentration 2.5): 14.1303%
% inhibition Apo pol 10' (DRC-1; 10'; concentration 5): 19.657%
% inhibition Apo pol 10' (DRC-1; 10'; concentration 10): 33.8432%
% inhibition Apo pol 10' (DRC-1; 10'; concentration 20): 42.9919%
% inhibition Apo pol 10' (DRC-1; 10'; concentration 40): 51.8731%
% inhibition Apo pol 10' (DRC-1; 10'; concentration 80): 57.9256%
% inhibition Apol 90' (DRC-1; 90'; concentration 2.5): 6.487%
% inhibition Apol 90' (DRC-1; 90'; concentration 5): 3.595%
% inhibition Apol 90' (DRC-1; 90'; concentration 10): 11.2996%
% inhibition Apol 90' (DRC-1; 90'; concentration 20): 16.5407%
% inhibition Apol 90' (DRC-1; 90'; concentration 40): 24.8113%
% inhibition Apol 90' (DRC-1; 90'; concentration 80): 29.7853%
% inhibition apPOL 180' (DRC-1; 180'; concentration 2.5): 1.7844%
% inhibition apPOL 180' (DRC-1; 180'; concentration 5): -2.772%
% inhibition apPOL 180' (DRC-1; 180'; concentration 10): 4.166%
% inhibition apPOL 180' (DRC-1; 180'; concentration 20): 7.699%
% inhibition apPOL 180' (DRC-1; 180'; concentration 40): 14.2771%
% inhibition apPOL 180' (DRC-1; 180'; concentration 80): 18.1576%
% inhibition Apo pol 5' (DRC-2, 5', concentration 2.5): 12%
% inhibition Apo pol 5' (DRC-2, 5', concentration 5): 18%
% inhibition Apo pol 5' (DRC-2, 5', concentration 10): 26%
% inhibition Apo pol 5' (DRC-2, 5', concentration 20): 32%
% inhibition Apo pol 5' (DRC-2, 5', concentration 40): 41%
% inhibition Apo pol 5' (DRC-2, 5', concentration 80): 42%
% inhibition Apol 40' (DRC-2, 40', concentration 2.5): 10%
% inhibition Apol 40' (DRC-2, 40', concentration 5): 13%
% inhibition Apol 40' (DRC-2, 40', concentration 10): 21%
% inhibition Apol 40' (DRC-2, 40', concentration 20): 23%
% inhibition Apol 40' (DRC-2, 40', concentration 40): 32%
% inhibition Apol 40' (DRC-2, 40', concentration 80): 36%
% inhibition ApPOL 90' (DRC-2, 90', concentration 2.5): 8%
% inhibition ApPOL 90' (DRC-2, 90', concentration 5): 10%
% inhibition ApPOL 90' (DRC-2, 90', concentration 10): 16%
% inhibition ApPOL 90' (DRC-2, 90', concentration 20): 17%
% inhibition ApPOL 90' (DRC-2, 90', concentration 40): 26%
% inhibition ApPOL 90' (DRC-2, 90', concentration 80): 32%
% inhibition apPOL 180' (DRC-2, 180', concentration 2.5): 1.74%
% inhibition apPOL 180' (DRC-2, 180', concentration 5): 3.63%
% inhibition apPOL 180' (DRC-2, 180', concentration 10): 7.41%
% inhibition apPOL 180' (DRC-2, 180', concentration 20): 6%
% inhibition apPOL 180' (DRC-2, 180', concentration 40): 16%
% inhibition apPOL 180' (DRC-2, 180', concentration 80): 23%
% inhibition Apo pol 5' (DRC-2; 5'; concentration 10): 26%
% inhibition Apo pol 5' (DRC-2; 5'; concentration 20): 32%
% inhibition Apol 40' (DRC-2; 40'; concentration 2.5): 10%
% inhibition Apol 40' (DRC-2; 40'; concentration 20): 23%
% inhibition Apol 40' (DRC-2; 40'; concentration 40): 32%
% inhibition ApPOL 90' (DRC-2; 90'; concentration 5): 10%
% inhibition ApPOL 90' (DRC-2; 90'; concentration 10): 16%
% inhibition ApPOL 90' (DRC-2; 90'; concentration 40): 26%
% inhibition ApPOL 90' (DRC-2; 90'; concentration 80): 32%
% inhibition apPOL 180' (DRC-2; 180'; concentration 40): 16%
% inhibition apPOL 180' (DRC-2; 180'; concentration 80): 23%
DNA Pol (primary screen value, 'DNA Pol' only; 90 min, 10 µM): 55

O=C(Nc1nnc(-c2ccno2)o1)c1ccc2ncsc2c1 [Molecule 62, O=C(c1ccc2c(c1)scn2)Nc1nnc(o1)c1ccno1]
DNA Pol ('DNA Pol'; screening value, unit not given; 90 min, 10 µM): 57
% inhibition Apo pol 10' (DRC-1; 10'; concentration 2.5): 10.861%
% inhibition Apo pol 10' (DRC-1; 10'; concentration 5): 15.6525%
% inhibition Apo pol 10' (DRC-1; 10'; concentration 10): 33.6921%
% inhibition Apo pol 10' (DRC-1; 10'; concentration 20): 64.2838%
% inhibition Apo pol 10' (DRC-1; 10'; concentration 40): 78.1502%
% inhibition Apo pol 10' (DRC-1; 10'; concentration 80): 81.399%
% inhibition Apol 90' (DRC-1; 90'; concentration 2.5): -2.7392%
% inhibition Apol 90' (DRC-1; 90'; concentration 5): 1.406%
% inhibition Apol 90' (DRC-1; 90'; concentration 10): 10.5152%
% inhibition Apol 90' (DRC-1; 90'; concentration 20): 33.263%
% inhibition Apol 90' (DRC-1; 90'; concentration 40): 51.9867%
% inhibition Apol 90' (DRC-1; 90'; concentration 80): 68.6824%
% inhibition apPOL 180' (DRC-1; 180'; concentration 2.5): -12.5523%
% inhibition apPOL 180' (DRC-1; 180'; concentration 5): -8.9419%
% inhibition apPOL 180' (DRC-1; 180'; concentration 10): -4.993%
% inhibition apPOL 180' (DRC-1; 180'; concentration 20): 10.6012%
% inhibition apPOL 180' (DRC-1; 180'; concentration 40): 29.0771%
% inhibition apPOL 180' (DRC-1; 180'; concentration 80): 50.4309%
% inhibition Apo pol 5' (DRC-2, 5', concentration 2.5): 9%
% inhibition Apo pol 5' (DRC-2, 5', concentration 5): 11%
% inhibition Apo pol 5' (DRC-2, 5', concentration 10): 38%
% inhibition Apo pol 5' (DRC-2, 5', concentration 20): 39%
% inhibition Apo pol 5' (DRC-2, 5', concentration 40): 37%
% inhibition Apo pol 5' (DRC-2, 5', concentration 80): 28%
% inhibition Apol 40' (DRC-2, 40', concentration 2.5): 6.5%
% inhibition Apol 40' (DRC-2, 40', concentration 5): 8%
% inhibition Apol 40' (DRC-2, 40', concentration 10): 36%
% inhibition Apol 40' (DRC-2, 40', concentration 20): 42%
% inhibition Apol 40' (DRC-2, 40', concentration 40): 53%
% inhibition Apol 40' (DRC-2, 40', concentration 80): 56%
% inhibition ApPOL 90' (DRC-2, 90', concentration 2.5): 4%
% inhibition ApPOL 90' (DRC-2, 90', concentration 5): 4%
% inhibition ApPOL 90' (DRC-2, 90', concentration 10): 29%
% inhibition ApPOL 90' (DRC-2, 90', concentration 20): 38%
% inhibition ApPOL 90' (DRC-2, 90', concentration 40): 54%
% inhibition ApPOL 90' (DRC-2, 90', concentration 80): 62%
% inhibition apPOL 180' (DRC-2, 180', concentration 2.5): -3%
% inhibition apPOL 180' (DRC-2, 180', concentration 5): -6%
% inhibition apPOL 180' (DRC-2, 180', concentration 10): 14%
% inhibition apPOL 180' (DRC-2, 180', concentration 20): 21%
% inhibition apPOL 180' (DRC-2, 180', concentration 40): 46%
% inhibition apPOL 180' (DRC-2, 180', concentration 80): 61%
% inhibition ApPOL 90' (conc 2.5 (unit not given); 90'; DRC-2): 4%
% inhibition ApPOL 90' (conc 5 (unit not given); 90'; DRC-2): 4%
% inhibition Apo pol 5' (conc 10 (unit not given); 5'; DRC-2): 38%
% inhibition ApPOL 90' (conc 20 (unit not given); 90'; DRC-2): 38%
DNA Pol (primary screen hit value, DNA Pol (186 hits); 90 min, 10 µM): 57

O=c1nc(/C=C/c2ccc(Br)cc2)oc2ccccc12 [KU0052629]
DNA Pol ('DNA Pol' of the 186 hits list (screen value); 90 min, 10 µM): 39
% inhibition Apo pol 10' (DRC-1; 10'; conc 2.5): -0.8795%
% inhibition Apo pol 10' (DRC-1; 10'; conc 5): 1.877%
% inhibition Apo pol 10' (DRC-1; 10'; conc 10): 5.765%
% inhibition Apo pol 10' (DRC-1; 10'; conc 20): 17.2321%
% inhibition Apo pol 10' (DRC-1; 10'; conc 40): 88.0772%
% inhibition Apo pol 10' (DRC-1; 10'; conc 80): 96.3156%
% inhibition Apol 90' (DRC-1; 90'; conc 2.5): -3.77%
% inhibition Apol 90' (DRC-1; 90'; conc 5): -1.711%
% inhibition Apol 90' (DRC-1; 90'; conc 10): 2.797%
% inhibition Apol 90' (DRC-1; 90'; conc 20): 11.2319%
% inhibition Apol 90' (DRC-1; 90'; conc 40): 85.0713%
% inhibition Apol 90' (DRC-1; 90'; conc 80): 92.172%
% inhibition apPOL 180' (DRC-1; 180'; conc 2.5): -7.96%
% inhibition apPOL 180' (DRC-1; 180'; conc 5): -5.094%
% inhibition apPOL 180' (DRC-1; 180'; conc 10): -1.853%
% inhibition apPOL 180' (DRC-1; 180'; conc 20): 4.7876%
% inhibition apPOL 180' (DRC-1; 180'; conc 40): 80.0065%
% inhibition apPOL 180' (DRC-1; 180'; conc 80): 94.1472%
% inhibition Apo pol 5' (DRC-2; 5'; conc 2.5): 6%
% inhibition Apo pol 5' (DRC-2; 5'; conc 5): -1.24%
% inhibition Apo pol 5' (DRC-2; 5'; conc 10): 6%
% inhibition Apo pol 5' (DRC-2; 5'; conc 20): 35%
% inhibition Apo pol 5' (DRC-2; 5'; conc 40): 60%
% inhibition Apo pol 5' (DRC-2; 5'; conc 80): 61%
% inhibition Apo pol 5' (DRC-2; 5'; concentration 2.5): 6%
% inhibition Apo pol 5' (DRC-2; 5'; concentration 10): 6%
% inhibition Apol 40' (DRC-2; 40'; conc 2.5): 8%
% inhibition Apol 40' (DRC-2; 40'; conc 5): -2.13%
% inhibition Apol 40' (DRC-2; 40'; conc 10): 5.6%
% inhibition Apol 40' (DRC-2; 40'; conc 20): 48%
% inhibition Apol 40' (DRC-2; 40'; conc 40): 77%
% inhibition Apol 40' (DRC-2; 40'; conc 80): 75%
% inhibition Apol 40' (DRC-2; 40'; concentration 2.5): 8%
% inhibition ApPOL 90' (DRC-2; 90'; conc 2.5): 8%
% inhibition ApPOL 90' (DRC-2; 90'; conc 5): -2%
% inhibition ApPOL 90' (DRC-2; 90'; conc 10): 5%
% inhibition ApPOL 90' (DRC-2; 90'; conc 20): 45%
% inhibition ApPOL 90' (DRC-2; 90'; conc 40): 79%
% inhibition ApPOL 90' (DRC-2; 90'; conc 80): 79%
% inhibition ApPOL 90' (DRC-2; 90'; concentration 2.5): 8%
% inhibition ApPOL 90' (DRC-2; 90'; concentration 40): 79%
% inhibition ApPOL 90' (DRC-2; 90'; concentration 80): 79%
% inhibition apPOL 180' (DRC-2; 180'; conc 2.5): 6%
% inhibition apPOL 180' (DRC-2; 180'; conc 5): -4%
% inhibition apPOL 180' (DRC-2; 180'; conc 10): 2.72%
% inhibition apPOL 180' (DRC-2; 180'; conc 20): 37%
% inhibition apPOL 180' (DRC-2; 180'; conc 40): 79%
% inhibition apPOL 180' (DRC-2; 180'; conc 80): 79%
% inhibition apPOL 180' (DRC-2; 180'; concentration 2.5): 6%
% inhibition apPOL 180' (DRC-2; 180'; concentration 40): 79%
% inhibition apPOL 180' (DRC-2; 180'; concentration 80): 79%
DNA Pol (primary screen value, "DNA Pol"; 90 min, 10 µM): 39

Cc1ccccc1C(=O)N1CCc2c(nc3cc(-c4ccccc4)[nH]n3c2=O)C1 [Molecule 41]
IC50 [1]: 12.4 µM

CO/N=C(\C(=O)N[C@@H]1C(=O)N2C(C(=O)O)=C(CSc3nc(=O)c(O)nn3C)CSC12)c1csc(N)n1 (stereo partly shown) [Molecule 83]
IC50 [1]: 18.7 µM

CC(C)CCNC(=O)c1cnn2c(O)cc(CSc3ccc(Cl)cc3)nc12 [Molecule 101]
IC50 [1]: 9.74 µM

O=C(O)C(=O)Nc1nc(-c2ccc3c(c2)OCCO3)cs1 [Molecule 82]
IC50 [1]: 40.5 µM
